Calls of active or inactive are those of the source.
What was measured:
[1] = target: T1, Heat shock factor protein 1 (Mus musculus, UniProt P38532); test: decrease of HSF1-responsive luciferase luminescence – cell-based, NIH3T3, dose retest, confirmation (AID 2382); type: functional;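 note: NIH3T3 fibroblasts with HSF1-driven luciferase reporter stressed by proteasome inhibitor MG132; luminescence from HSF1-driven luciferase expression after 8 hours of MG132 stress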
T1 sequence (P38532 whole entry): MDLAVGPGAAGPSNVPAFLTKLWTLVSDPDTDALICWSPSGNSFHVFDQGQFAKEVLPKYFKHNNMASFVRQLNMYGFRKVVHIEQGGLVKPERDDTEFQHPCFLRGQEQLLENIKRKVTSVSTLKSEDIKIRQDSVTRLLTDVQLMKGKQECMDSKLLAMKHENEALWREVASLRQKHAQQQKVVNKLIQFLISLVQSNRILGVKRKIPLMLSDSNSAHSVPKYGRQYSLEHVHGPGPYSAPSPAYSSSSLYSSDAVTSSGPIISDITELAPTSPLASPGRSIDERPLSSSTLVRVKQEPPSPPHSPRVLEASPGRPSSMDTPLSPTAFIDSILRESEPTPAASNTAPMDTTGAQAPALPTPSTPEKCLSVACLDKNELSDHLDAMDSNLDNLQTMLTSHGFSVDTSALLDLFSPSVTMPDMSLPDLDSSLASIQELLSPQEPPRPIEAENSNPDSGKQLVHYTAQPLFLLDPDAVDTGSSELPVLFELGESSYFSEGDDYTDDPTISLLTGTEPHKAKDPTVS

[2] = target: Mitogen-activated protein kinase kinase kinase kinase 5 (Homo sapiens, UniProt Q9Y4K4); type: functional;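 note: measured as one member of a kinome-spanning kinase panel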
[3] = target: T2, Interleukin-1 receptor-associated kinase 4 (Homo sapiens, UniProt Q9NWZ3); type: functional
T2 sequence (Q9NWZ3 whole entry): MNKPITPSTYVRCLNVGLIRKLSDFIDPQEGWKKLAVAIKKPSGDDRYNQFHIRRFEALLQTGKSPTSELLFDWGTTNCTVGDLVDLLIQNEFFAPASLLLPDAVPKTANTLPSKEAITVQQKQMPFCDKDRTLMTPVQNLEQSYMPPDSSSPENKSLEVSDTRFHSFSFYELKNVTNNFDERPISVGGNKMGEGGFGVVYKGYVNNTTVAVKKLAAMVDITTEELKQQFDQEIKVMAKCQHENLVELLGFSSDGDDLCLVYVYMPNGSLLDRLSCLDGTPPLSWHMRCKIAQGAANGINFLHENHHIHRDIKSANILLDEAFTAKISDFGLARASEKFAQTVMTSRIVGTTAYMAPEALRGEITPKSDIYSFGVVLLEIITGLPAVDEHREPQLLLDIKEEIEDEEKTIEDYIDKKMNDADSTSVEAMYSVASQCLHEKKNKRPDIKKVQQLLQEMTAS

[4] = target: T3, Replicative DNA helicase DnaB (Mycobacterium tuberculosis, UniProt P9WMR3); test: DnaB intein splicing inhibitors, dose response, biochemical, cell-free fluorescence (AID 449749); type: functional
T3 sequence (P9WMR3 whole entry): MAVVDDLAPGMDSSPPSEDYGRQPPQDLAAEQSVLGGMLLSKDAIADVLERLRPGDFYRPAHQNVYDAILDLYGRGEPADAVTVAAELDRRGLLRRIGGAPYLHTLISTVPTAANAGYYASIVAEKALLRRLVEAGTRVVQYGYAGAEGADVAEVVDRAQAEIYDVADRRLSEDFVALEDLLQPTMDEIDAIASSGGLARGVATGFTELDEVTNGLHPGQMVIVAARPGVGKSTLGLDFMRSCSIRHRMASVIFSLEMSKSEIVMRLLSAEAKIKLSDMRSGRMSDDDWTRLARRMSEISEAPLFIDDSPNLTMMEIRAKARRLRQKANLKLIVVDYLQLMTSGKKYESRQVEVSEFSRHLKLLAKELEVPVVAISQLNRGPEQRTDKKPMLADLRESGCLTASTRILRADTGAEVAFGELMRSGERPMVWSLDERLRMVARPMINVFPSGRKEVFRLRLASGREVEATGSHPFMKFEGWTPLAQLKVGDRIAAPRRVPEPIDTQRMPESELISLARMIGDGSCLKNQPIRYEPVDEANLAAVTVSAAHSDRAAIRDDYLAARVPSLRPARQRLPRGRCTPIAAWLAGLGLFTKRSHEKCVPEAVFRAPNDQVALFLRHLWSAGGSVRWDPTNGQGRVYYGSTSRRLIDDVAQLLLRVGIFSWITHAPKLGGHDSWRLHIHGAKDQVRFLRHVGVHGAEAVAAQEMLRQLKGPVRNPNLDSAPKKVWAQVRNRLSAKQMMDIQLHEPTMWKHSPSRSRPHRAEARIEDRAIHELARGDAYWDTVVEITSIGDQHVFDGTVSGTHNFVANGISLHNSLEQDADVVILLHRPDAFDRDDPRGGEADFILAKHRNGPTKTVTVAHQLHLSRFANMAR

Phospholipase A2 = Phospholipase A2 (Homo sapiens, UniProt P04054); type: functional;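 note: confirmatory dose-response counterscreen on phospholipase A2, testing hits that came from an ultra-high-throughput screen for ATG4B inhibitors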
[5] = target: T4, Dual specificity protein phosphatase 6 (Rattus norvegicus, UniProt Q64346); test: inhibition of rat DUSP6 enzyme activity – biochemical, in vitro, primary screen (AID 425)
T4 sequence (Q64346 whole entry): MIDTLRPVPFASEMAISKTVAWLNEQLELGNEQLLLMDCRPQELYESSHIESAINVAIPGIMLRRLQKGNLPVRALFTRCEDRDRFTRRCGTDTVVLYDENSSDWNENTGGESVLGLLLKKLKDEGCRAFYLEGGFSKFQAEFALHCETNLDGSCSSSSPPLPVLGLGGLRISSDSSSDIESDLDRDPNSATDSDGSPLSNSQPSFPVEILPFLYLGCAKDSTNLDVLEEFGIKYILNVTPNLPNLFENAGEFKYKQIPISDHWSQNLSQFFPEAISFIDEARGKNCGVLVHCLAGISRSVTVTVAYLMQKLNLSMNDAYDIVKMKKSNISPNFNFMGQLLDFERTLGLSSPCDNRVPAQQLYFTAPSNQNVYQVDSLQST

Chain of Mitogen-activated protein kinase kinase kinase kinase 5 (Q9Y4K4 whole entry): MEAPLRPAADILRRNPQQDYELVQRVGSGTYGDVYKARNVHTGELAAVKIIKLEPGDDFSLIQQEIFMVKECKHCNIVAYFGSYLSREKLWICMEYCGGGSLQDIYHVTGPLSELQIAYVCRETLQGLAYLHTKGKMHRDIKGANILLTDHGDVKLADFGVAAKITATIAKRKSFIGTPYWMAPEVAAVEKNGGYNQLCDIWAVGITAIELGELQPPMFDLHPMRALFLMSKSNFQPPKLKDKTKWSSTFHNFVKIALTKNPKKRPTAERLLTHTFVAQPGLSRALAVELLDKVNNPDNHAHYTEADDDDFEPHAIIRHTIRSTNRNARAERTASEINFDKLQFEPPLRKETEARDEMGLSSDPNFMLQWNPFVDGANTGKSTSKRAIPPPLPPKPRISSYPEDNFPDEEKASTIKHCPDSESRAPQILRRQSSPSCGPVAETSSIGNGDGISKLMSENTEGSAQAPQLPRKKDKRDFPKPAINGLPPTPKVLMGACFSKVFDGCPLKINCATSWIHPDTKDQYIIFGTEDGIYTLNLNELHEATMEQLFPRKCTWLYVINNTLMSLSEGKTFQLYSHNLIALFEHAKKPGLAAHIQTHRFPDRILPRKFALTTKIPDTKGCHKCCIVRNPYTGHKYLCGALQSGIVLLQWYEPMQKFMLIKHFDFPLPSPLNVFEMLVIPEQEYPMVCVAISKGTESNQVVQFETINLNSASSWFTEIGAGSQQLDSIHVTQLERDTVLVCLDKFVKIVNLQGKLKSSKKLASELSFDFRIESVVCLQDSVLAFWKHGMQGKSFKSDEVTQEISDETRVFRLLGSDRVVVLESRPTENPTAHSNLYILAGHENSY
Chain of Phospholipase A2 (P04054 whole entry): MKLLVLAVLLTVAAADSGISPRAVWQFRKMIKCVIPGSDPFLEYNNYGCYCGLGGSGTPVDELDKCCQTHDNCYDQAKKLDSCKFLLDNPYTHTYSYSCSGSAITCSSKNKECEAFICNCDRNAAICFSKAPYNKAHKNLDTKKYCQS

CC(C)c1ccc(-c2nnn(CCC(=O)O)n2)cc1 was tested. Which EC50 [1] did it give?
The EC50 was < 0.16 µM (active).

COc1cc2c(cc1Nc1nc(Nc3cccc(F)c3C(N)=O)c3cc[nH]c3n1)N(C(=O)CN(C)C)CC2 was tested. Which Ki [2] did it give?
The Ki was > 7.94 µM (inactive).

And the Ki [3]?
The Ki was 10 µM (active).

Which results are given for CCn1nc(/C=C/c2ccccc2)nc2c(=O)n(C)c(=O)nc1-2?
AC50 [4]: 0.487 µM (active); IC50 (Phospholipase A2): > 80 µM (inactive); IC50 [5]: < 1.23 µM (not active)
